Activity calls are given as the source filed them. No cut-off for these calls is given here.
Assays:
[1] = Metabolic stability of rat microsomes assessed as compound turnover at 1 uM after 30 mins by LC-MS analysis; assay type: ADME, Microsome; conditions: read-out: Drug metabolism
[2] = Metabolic stability of human microsomes assessed as compound turnover at 1 uM after 30 mins by LC-MS analysis; assay type: ADME, Microsome; conditions: read-out: Drug metabolism
[3] = target: T1, Probable G-protein coupled receptor 142 (Homo sapiens) (UniProt Q7Z601); experiment: Agonist activity at human GPR142 expressed in HEK293 cells assessed as inositol phosphate accumulation at 10 uM after 1 hr by scintillation counting; assay type: functional, cell-based
T1 sequence (whole entry): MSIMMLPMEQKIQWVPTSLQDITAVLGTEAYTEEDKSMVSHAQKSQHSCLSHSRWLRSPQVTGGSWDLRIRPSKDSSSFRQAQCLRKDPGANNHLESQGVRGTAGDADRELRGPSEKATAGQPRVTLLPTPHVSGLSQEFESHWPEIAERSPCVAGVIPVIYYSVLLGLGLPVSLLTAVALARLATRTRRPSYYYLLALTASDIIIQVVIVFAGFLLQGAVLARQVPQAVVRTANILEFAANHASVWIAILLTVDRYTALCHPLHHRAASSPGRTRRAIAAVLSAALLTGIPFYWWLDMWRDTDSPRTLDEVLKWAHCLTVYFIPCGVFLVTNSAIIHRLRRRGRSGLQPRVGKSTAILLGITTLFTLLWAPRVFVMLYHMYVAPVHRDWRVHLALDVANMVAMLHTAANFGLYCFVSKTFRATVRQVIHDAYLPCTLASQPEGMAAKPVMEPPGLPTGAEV

[4] = target: T2, Probable G-protein coupled receptor 142 (Homo sapiens, UniProt Q7Z601); experiment: Agonist activity at human GPR142 expressed in HEK293 cells assessed as inositol phosphate accumulation after 1 hr by scintillation counting; assay type: functional, cell-based
T2 sequence (Q7Z601 whole entry): T1 sequence (whole entry)

[5] = Clearance in rat; assay type: ADME, organism-based; conditions: in vivo
[6] = Clearance in rat at 0.5 mg/kg, iv; assay type: ADME, organism-based; set-up: dose 0.5 mg/kg, route intravenous; conditions: in vivo
[7] = Oral bioavailability in rat at 2 mg/kg; assay type: ADME, organism-based; conditions: in vivo
[8] = AUC in rat at 0.5 mg/kg, iv; assay type: ADME, organism-based; set-up: dose 0.5 mg/kg, route intravenous; conditions: plasma
[9] = Volume of distribution at steady state in rat at 0.5 mg/kg, iv; assay type: ADME, organism-based; set-up: dose 0.5 mg/kg, route intravenous; conditions: in vivo, read-out: Vdss
[10] = Half life in rat at 0.5 mg/kg, iv; assay type: ADME, organism-based; set-up: dose 0.5 mg/kg, route intravenous; conditions: in vivo
[11] = AUC in rat at 2 mg/kg, po; assay type: ADME, organism-based; set-up: dose 2 mg/kg, route oral; conditions: plasma
[12] = Mean residence time in rat at 2 mg/kg, po; assay type: ADME, organism-based; set-up: dose 2 mg/kg, route oral; conditions: in vivo
[13] = target: T1, Probable G-protein coupled receptor 142 (Homo sapiens); experiment: Agonist activity at human GPR142 expressed in HEK293 cells assessed as inositol phosphate accumulation after 1 hr by scintillation counting in presence of 100% serum; assay type: functional, cell-based
[14] = Clearance in rat at 0.67 mg/kg, iv; assay type: ADME, organism-based; set-up: dose 0.67 mg/kg, route intravenous; conditions: in vivo
[15] = AUC in rat at 0.67 mg/kg, iv; assay type: ADME, organism-based; set-up: dose 0.67 mg/kg, route intravenous; conditions: plasma
[16] = Volume of distribution at steady state in rat at 0.67 mg/kg, iv; assay type: ADME, organism-based; set-up: dose 0.67 mg/kg, route intravenous; conditions: in vivo, read-out: Vdss
[17] = Half life in rat at 0.67 mg/kg, iv; assay type: ADME, organism-based; set-up: dose 0.67 mg/kg, route intravenous; conditions: in vivo
[18] = target: T3, Probable G-protein coupled receptor 142 (Mus musculus) (UniProt Q7TQN9); experiment: Partial agonist activity at mouse GPR142 expressed in HEK293 cells relative to control; assay type: functional, cell-based
T3 sequence (whole entry): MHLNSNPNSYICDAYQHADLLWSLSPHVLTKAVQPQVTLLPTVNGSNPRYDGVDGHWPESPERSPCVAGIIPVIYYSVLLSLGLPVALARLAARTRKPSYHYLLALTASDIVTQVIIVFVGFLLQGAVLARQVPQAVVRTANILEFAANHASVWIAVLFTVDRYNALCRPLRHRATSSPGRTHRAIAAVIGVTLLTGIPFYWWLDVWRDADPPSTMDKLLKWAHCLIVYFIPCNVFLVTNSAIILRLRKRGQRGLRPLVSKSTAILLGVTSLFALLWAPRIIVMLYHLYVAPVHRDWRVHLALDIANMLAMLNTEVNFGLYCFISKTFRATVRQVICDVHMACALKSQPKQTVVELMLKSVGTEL

SMILES	metabolised at 0.5 h, 1 µM [1] [%]	metabolised at 0.5 h, 1 µM [2] [%]	Emax [3] [%]	EC50 [4] [nM]	also measured
C[C@H](N[C@@H](Cc1ccccc1)C(=O)Nc1cc(-c2ccncc2)c[nH]c1=O)c1ccccn1	99	100	107	220	–
CN(C)CCn1cc(-c2ccncc2)cc(NC(=O)[C@H](Cc2ccccc2)NC2(c3ccccn3)CC2)c1=O	22	19	118	280	clearance [5]: 51.7 mL/min/kg
O=C(Nc1cc(-c2ccncc2)c[nH]c1=O)[C@H](Cc1ccccc1)NCc1ccccn1	95	95	155	95	–
O=C(O)Cn1cc(-c2ccncc2)cc(NC(=O)[C@H](Cc2ccccc2)NC2(c3ccccn3)CC2)c1=O	12	10	83	260	clearance [5]: 83.3 mL/min/kg
Cn1cncc1-c1nnc(NC(=O)[C@H](Cc2ccccc2)NCc2cscn2)s1	35	19	86	180	clearance [6]: 28.3 mL/min/kg; bioavailability [7]: 19%
O=C(Nc1cc(-c2ccncc2)c[nH]c1=O)[C@H](Cc1ccccc1)NCC1CCS(=O)(=O)CC1	58	21	91	20000	–
O=C(Nc1cc(-c2ccncc2)c[nH]c1=O)[C@H](Cc1ccccc1)NCc1c[nH]cn1	96	60	107	110	–
Cc1cc(CN[C@@H](Cc2ccccc2)C(=O)Nc2cc(-c3ccncc3)c[nH]c2=O)no1	95	78	93	2200	–
Cc1nc(C2(N[C@@H](Cc3ccccc3)C(=O)Nc3cc(-c4ccncc4)c[nH]c3=O)CC2)cs1	74	64	106	200	–
O=C(Nc1nnc(-c2ccncc2)s1)[C@H](Cc1ccccc1)NCc1cscn1	10	14	115	86	clearance [6]: 7.33 mL/min/kg; AUC [8]: 1240 ng·h/mL; Vd [9]: 0.21 L/kg; half-life [10]: 1.2 h; AUC [11]: 480 ng·h/mL; MRT [12]: 1.93 h; bioavailability [7]: 10%; Activity [13]: Active
COc1ncc(-c2ccncc2)cc1NC(=O)[C@H](Cc1ccccc1)NC1(c2ccccn2)CC1	54	15	123	350	clearance [5]: 21.7 mL/min/kg; Activity [13]: inactive
O=C(Nc1cc(-c2ccncc2)c[nH]c1=O)[C@H](Cc1ccccc1)NC[C@H]1CCCO1	98	83	78	390	–
O=C(Nc1nnc(-c2cncs2)s1)[C@H](Cc1ccccc1)NCc1cscn1	57	29	74	390	clearance [6]: 40 mL/min/kg; bioavailability [7]: 32%
O=C1CC[C@H](CN[C@@H](Cc2ccccc2)C(=O)Nc2cc(-c3ccncc3)c[nH]c2=O)N1	67	19	78	2230	–
Cn1ccc(CN[C@@H](Cc2ccccc2)C(=O)Nc2cc(-c3ccncc3)c[nH]c2=O)n1	100	90	92	210	–
O=C(Nc1cc(-c2ccncc2)c[nH]c1=O)[C@H](Cc1ccccc1)NCCc1ccccn1	100	100	76	1320	–
O=C(Nc1cc(-c2ccncc2)c[nH]c1=O)[C@H](Cc1ccccc1)NCc1cscn1	99	68	–	930	Activity [13]: Active
O=C(Nc1cc(-c2ccncc2)c[nH]c1=O)[C@H](Cc1ccccc1)NCc1ncccn1	99	90	95	440	–
O=C(Nc1cc(-c2ccncc2)c[nH]c1=O)[C@H](Cc1ccccc1)NCCC1CCOCC1	80	66	84	1060	–
C[C@@H](N[C@@H](Cc1ccccc1)C(=O)Nc1cc(-c2ccncc2)c[nH]c1=O)c1ccccn1	95	95	60	6000	–
CCC(N[C@@H](Cc1ccccc1)C(=O)Nc1cc(-c2ccncc2)c[nH]c1=O)c1ccccn1 (mixture of isomers)	95	85	81	730	–
CC(C)(N[C@@H](Cc1ccccc1)C(=O)Nc1cc(-c2ccncc2)c[nH]c1=O)c1ccccn1	100	> 95	57	9450	–
O=C(Nc1cc(-c2ccncc2)c[nH]c1=O)[C@H](Cc1ccccc1)NC1(c2ncccn2)CC1	67	21	114	99	–
CNc1cc(-c2nnc(NC(=O)[C@H](Cc3ccccc3)NCc3cscn3)s2)ccn1	66	58	96	36	clearance [14]: 3.83 mL/min/kg; AUC [15]: 3030 ng·h/mL; Vd [16]: 0.23 L/kg; half-life [17]: 1.2 h; AUC [11]: 1730 ng·h/mL; MRT [12]: 2.36 h; bioavailability [7]: 36%; Activity [13]: inactive; Emax [18]: 37%

— ChEMBL document CHEMBL2163318, “Phenylalanine derivatives as GPR142 agonists for the treatment of type II diabetes” (Bioorg Med Chem Lett, 2012)
